Experimental findings from patent US20090104128A1, “Denture adhesive compositions with anti-ucler agents” (Orahealth Corporation, priority 2007, published 2009) are described below.

The subject of the experiment is mouth ulcers. Nature of the experiment: tests of cobalamin forms for treatment of mouth ulcers. Format: in vivo. The conditions noted are these: compared with other cobalamin forms (cyanocobalamin, hydroxocobalamin); tests not described.

Regarding `C/C1=C2/[N-][C@H]([C@H](CC(N)=O)[C@@]2(C)CCC(=O)NC[C@@H](C)OP(=O)([O-])O[C@H]2[C@@H](O)[C@@H](n3cnc4cc(C)c(C)cc43)O[C@@H]2CO)[C@]2(C)N=C(/C(C)=C3N=C(/C=C4N=C1[C@@H](CCC(N)=O)C\4(C)C)[C@@H](CCC(N)=O)[C@]\3(C)CC(N)=O)[C@@H](CCC(N)=O)[C@]2(C)CC(N)=O.[CH3-].[Co+3]` [Methylcobalamin, methylcobalamin], the “treatment of mouth ulcers” value is “superior”.
